Data as given in PubChem BioAssay (NCI).
Values joined by “and” are separate entries in the source; they are usually repeats but may differ in a detail not shown here. Identical values can stand only once.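 Method: 48-hour compound exposure of cells in 96-well plates, five concentrations, linear interpolation of endpoints. At the GI50, growth is halved. TGI marks complete inhibition of growth.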

Experiments:
Experiment in all cases: growth of human tumour cells (NCI), 48 h
[1] = tested on: SK-MEL-2 melanoma
[2] = tested on: UO-31 renal
[3] = tested on: HCT-116 colon
[4] = tested on: HCC-2998 colon
[5] = tested on: 786-0 renal
[6] = tested on: SN12C renal
[7] = tested on: UACC-62 melanoma
[8] = tested on: NCI-H460 lung
[9] = tested on: SK-MEL-28 melanoma
[10] = tested on: HCT-15 colon

| SMILES | GI50 [1] | TGI [1] | GI50 [2] | TGI [2] | GI50 [3] | TGI [3] | GI50 [4] | TGI [4] | GI50 [5] | TGI [5] | GI50 [6] | TGI [6] | GI50 [7] | TGI [7] | GI50 [8] | TGI [8] | GI50 [9] | TGI [9] | GI50 [10] | TGI [10] |
| --- | --- | --- | --- | --- | --- | --- | --- | --- | --- | --- | --- | --- | --- | --- | --- | --- | --- | --- | --- | --- |
| O=C1NC(=O)C(c2cnc3ccccn23)=C1c1cn2c3c(cc(F)cc13)CN(C(=O)N1CCCCC1)CC2 | 8.8 µM | 27.2 µM | 2.54 µM | > 65.5 µM | 3.35 µM | > 89.8 µM | 14.6 µM | 32.8 µM | 3.05 µM | > 59.4 µM | 9.54 µM | 54.6 µM | 7.72 µM | 22.9 µM | 2.45 µM | 29.1 µM | 19.5 µM | 45 µM | 13.3 µM | 66.9 µM |
| CCN(CC)CCCC(CNc1ccnc2cc(Cl)ccc12)c1ccc(Cl)cc1 (configuration not stated) | 2.1 µM and 1.59 µM | 4.07 µM and 3.09 µM | 0.891 µM and 0.974 µM | 2.24 µM and 2.31 µM | 1.54 µM and 0.925 µM | 6.12 µM and 2.36 µM | 1.42 µM and 0.834 µM | 2.96 µM and 2.21 µM | 1.43 µM and 1.57 µM | 2.85 µM and 2.97 µM | 1.96 µM and 1.92 µM | 4.78 µM and 4.3 µM | 1.9 µM and 1.86 µM | 3.52 µM and 3.5 µM | 1.9 µM and 1.74 µM | 3.95 µM and 3.82 µM | 1.66 µM and 0.537 µM | 3.3 µM and 1.09 µM | 0.535 µM and 0.984 µM | 2.1 µM and 2.62 µM |
| O/N=C/C1C(OCc2ccccc2)C(OCc2ccccc2)C(OCc2ccccc2)CN1Cc1ccccc1 (configuration not stated) |  | 53.9 µM | 20 µM and 5.22 µM | 65.9 µM and > 100 µM |  | 22.6 µM and > 100 µM |  | > 100 µM |  | 21.1 µM and > 100 µM | 20.6 µM and 4.32 µM | 62 µM and > 100 µM |  | 30.5 µM and > 100 µM | 8.94 µM and 3.24 µM | 32.4 µM and 29.9 µM |  | 44.1 µM and > 100 µM | 25.7 µM and 9.77 µM | > 100 µM |
| COc1cc(C2CC(c3cccc(Br)c3)=NN2C(C)=O)cc(OC)c1OC (configuration not stated) | 3.51 µM | 55.5 µM | 3.33 µM | > 65.6 µM | 0.479 µM | > 55.9 µM | 1.11 µM | 15.7 µM | 0.771 µM | > 65.4 µM | 2.76 µM | > 81.4 µM | 0.309 µM | 29.3 µM | 0.344 µM | 11.7 µM | 3.8 µM | > 77.9 µM | 0.328 µM | 29.5 µM |
| [Cl][Hg][c]1cc(Br)cc(Br)c1 | 1.97 µM | 5.66 µM | 4.64 µM | 15.5 µM | 3.41 µM | 13.4 µM | 2.08 µM | 4.29 µM | 1.69 µM | 3.2 µM | 1.61 µM | 3.56 µM | 1.62 µM | 3.42 µM | 2.05 µM | 7.61 µM | 1.57 µM | 2.97 µM | 1.6 µM | 3.22 µM |
| CN(C)c1ccc(C(C=C2c3ccccc3Sc3ccccc32)=C(C#N)C#N)cc1 |  | > 100 µM |  | > 100 µM |  | > 100 µM |  | > 100 µM |  | > 100 µM |  | > 100 µM |  | > 100 µM |  | > 100 µM |  | > 100 µM |  | > 100 µM |
| CCN(CC)c1ccc2c(c1)OC(N)=C(C#N)C2c1cc(OC)c2c(c1)OCO2 (configuration not stated) | 0.0476 µM | 13.8 µM | 0.403 µM | > 43.3 µM | 0.0324 µM | 1.78 µM | 0.0302 µM | 1.35 µM | 0.0438 µM | 3.16 µM | 0.0537 µM | 6.09 µM | < 0.0184 µM | 13.5 µM | 0.0336 µM | 0.503 µM | 0.0345 µM | 22.7 µM | 0.0349 µM | 3.93 µM |
| Cc1nc2c(-c3cnc(N)nc3)nc(N3CCOCC3)nc2n1C(C)C |  | 0.733 µM and 0.688 µM |  | 0.452 µM and 0.401 µM | 0.254 µM and 0.289 µM | > 100 µM |  | 4.27 µM and 24.8 µM |  | 1.32 µM and 0.902 µM |  | > 100 µM |  | 0.334 µM and 0.305 µM |  | > 100 µM |  | 0.524 µM and 3.51 µM |  | > 100 µM |
| COc1ccc(-n2cc(-c3cc(OC)c(OC)c(OC)c3)c(C(=O)C(F)(F)F)c2C)cc1 | > 100 µM | > 100 µM | 4.6 µM | > 100 µM | 6.93 µM | > 100 µM | > 100 µM | > 100 µM | > 100 µM | > 100 µM | 28.6 µM | > 100 µM | 15.6 µM | > 100 µM | 29.4 µM | > 100 µM | > 100 µM | > 100 µM | 59.4 µM | > 100 µM |
| Cc1ccc(NC(=O)C(=O)C(C(=O)c2ccc3ccccc3c2)C2OC(=O)c3ccccc32)cc1C (configuration not stated) |  | 36.3 µM |  | 27.6 µM |  | 25.5 µM |  | 18.9 µM |  | 23.8 µM |  | 44.8 µM |  | 30.7 µM |  | 51.4 µM |  | 26.9 µM |  | 24.2 µM |
| CCN1CCN(C(c2ccc(C(F)(F)F)cc2)c2ccc3cccnc3c2O)CC1 (configuration not stated) | 4.53 µM | 17.6 µM | 1.59 µM | 9.04 µM | 3.06 µM | 13.5 µM | 0.88 µM | 12.2 µM | 2.34 µM | 7.5 µM | 2.27 µM | 15.3 µM | 1.98 µM | 10.4 µM | 0.412 µM | 10.8 µM | 3.68 µM | 16.6 µM | 3.74 µM | 17.6 µM |
| CCCCCCNC(=O)c1cc(NCc2cc(O)ccc2O)ccc1O | 11.9 µM | 34.5 µM | 1.22 µM | 2.76 µM | 4.75 µM | 24.9 µM | 16.1 µM | 31 µM | 5.22 µM | 20.7 µM | 4.75 µM | 17.4 µM | 3.78 µM | 14.7 µM | 21.5 µM | 82.3 µM | 12.3 µM | 25.4 µM | 2.16 µM | 7.35 µM |
| C=COCCCOc1ccccc1 |  | > 100 µM |  | > 100 µM |  | > 100 µM |  | > 100 µM | > 100 µM | > 100 µM |  | > 100 µM | > 100 µM | > 100 µM |  | > 100 µM |  | > 100 µM |  | > 100 µM |
| Clc1nc2ccccc2nc1CI | 5.43 µM | 19.4 µM | 2.05 µM | 5.17 µM | 1.95 µM | 3.95 µM | 19.1 µM | 35.9 µM | 3.95 µM | 13.8 µM | 4.15 µM | 15.6 µM | 4.32 µM | 16.5 µM | 11 µM | 28.5 µM | 9.31 µM | 23 µM | 2.41 µM | 6.46 µM |
| COC(=O)C1=C(O)c2cc(OC)c(OC)cc2C(c2ccc(OC)c(OC)c2)C1 (configuration not stated) |  | > 100 µM |  | > 100 µM |  | > 100 µM |  | > 100 µM |  | > 100 µM |  | > 100 µM |  | > 100 µM |  | > 100 µM |  | > 100 µM |  | > 100 µM |
| C=C1CC[C@@H]2[C@](C)(COC(C)=O)[C@H](OC(C)=O)CC[C@@]2(C)[C@@H]1CC(Sc1ccccc1)C1=CCOC1=O (some centres not stated) | 2.25 µM | 4.59 µM | 1.2 µM | 2.53 µM | 0.854 µM | 2.18 µM | 2.1 µM | 4.07 µM | 1.9 µM | 3.64 µM | 2.1 µM | 7.07 µM | 1.3 µM | 3.24 µM | 2.24 µM | 6.03 µM | 1.62 µM | 3.29 µM | 0.877 µM | 2.59 µM |
